Measurements from patent US6911531B2, “Antibodies directed towards a novel human EP prostaglandin receptor” (Allergan, Inc., priority 1994, dated 2005).

How the values were obtained:
human HP4 receptor [1] = biological target: T1, human HP4 receptor (Homo sapiens, UniProt P43116); assay: Competition of [3H]-PGE2 binding to membranes of HP4-transfected COS-7 cells; settings: [3H]-PGE2 5 nM, 100 μg protein/tube, 60 minutes at room temperature; FIG. 1A-1C
T1 construct: a plasmid with a complete open reading frame in the sense orientation was isolated; expressed in transfected cells; host or cells: COS-7 cells (ATCC CRL 1651), transient DEAE-dextran transfection with pBC/HP4
T1 sequence (P43116 whole entry): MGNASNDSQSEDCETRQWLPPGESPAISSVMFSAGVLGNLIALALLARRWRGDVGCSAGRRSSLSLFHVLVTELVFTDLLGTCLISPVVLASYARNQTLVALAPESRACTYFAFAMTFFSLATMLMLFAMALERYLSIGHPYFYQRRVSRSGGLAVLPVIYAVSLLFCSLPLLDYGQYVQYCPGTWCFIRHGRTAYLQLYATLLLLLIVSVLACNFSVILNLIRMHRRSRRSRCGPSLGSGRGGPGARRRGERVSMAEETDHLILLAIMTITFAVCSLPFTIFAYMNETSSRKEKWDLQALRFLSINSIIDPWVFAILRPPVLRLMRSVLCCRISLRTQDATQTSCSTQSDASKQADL
Protocol: (§1) Monolayers of COS-7 cells (ATCC CRL 1651; 70-80% confluent) were rinsed with Phosphate Buffered Saline (PBS, Ca/Mg-free) in 150×25 mm culture dishes. Ten ml transfection mix, consisting of 5 μ/ml plasmid DNA and 0.5 mg/ml DEAE-dextran in PBS, was added to each dish and cells were incubated for 30 min at 37° C. Nine ml of the solution was removed from each dish followed by the addition of 10 ml of […] chloroquine in Dulbecco's Modified Eagle Medium (DMEM)/5% fetal bovine serum (FBS). The cells were incubated for 2.5 hr at 37° C., the solution aspirated and 10 ml of 10% dimethyl sulfoxide (DMSO) in DMEM/5% FBS was added. After a 2.5 minute incubation at 37° C., the solution was aspirated and 30 ml DMEM/5% FBS was added. The cells were incubated at 37° C. with media changes at 24 and 48 hours. After 72 hours, the media was aspirated and the cells were scraped into cold TME buffer (50 mM Tris-HCl, pH 7.4, 10 mM MgCl2, 1 mM EDTA). The dishes were rinsed with cold TME buffer and the cells combined and placed on ice.
Transfected COS-7 cells were homogenized for 30 seconds at approximately 80% power with a Brinkman PT 10/35 Polytron homogenizer. The resulting homogenate was centrifuged at 19,000 rpm for 20 minutes at 4° C. using a Sorvall SS-34 rotor. The membrane pellet was resuspended in cold TME buffer (1 ml per original dish), frozen in liquid nitrogen and stored at −80° C.
Membrane pellets were then diluted in ice-cold 50 mM Tris-HCl buffer at pH 7.4 using a sonicator set at 50 watts. Membrane suspensions (100 μl) were then added to each assay tube to start the binding reaction. Final concentrations of the competition assay were as follows: [^3H]-PGE2, 5 nM; 100 μg protein/tube in a total volume of 200 μl. Increasing concentrations of compounds to be tested for competitively inhibiting binding were incubated for 60 minutes at room temperature. Contents were aspirated onto a presoaked ice-cold Whatman GF/B filter using a Brandel Cell Harvester and washed three times with ice-cold assay buffer. The filters were dried, placed in scintillation fluid and counted.

putative EP2 receptor = settings: cloned receptor of An et al. 1993 / Honda et al. 1993; cited from earlier work
[2] = Nials et al., 1993; cited from earlier work
human neutrophils = settings: Nials et al., 1993; cited from earlier work
human myometrium = settings: Yeardley et al., 1992; cited from earlier work
human HP4 receptor [3] = biological target: T1, human HP4 receptor; assay: cAMP assay on HP4-transfected COS-7 cells; assay type: cell-based; settings: FIG. 2
Protocol: as §1
HP4-transfected COS-7 cells, prepared as described in Example 2, were cultured in DMEM containing 10% FCS, 100 units/ml penicillin, 100 μ/ml streptomycin. […] Cells were trypsinized and resuspended in a small volume of medium (2-3 ml), counted using a hemocytometer and diluted to 7-8×10^4 cells/ml (DMEM/5% FCS). […] The amount of cAMP was quantified as follows. […]

| Structure (SMILES) | competition of [3H]-PGE2 binding (human HP4 receptor [1]) | other results |
| --- | --- | --- |
| C[C@@H](O)CCC[C@H](O)/C=C/[C@H]1[C@H](O)CC(=O)[C@@H]1C/C=C\CCCC(=O)O [19(R)-hydroxy PGE2] | exhibited competitive activity | – |
| CCCC1([C@H](O)C/C=C/[C@H]2[C@H](O)CC(=O)[C@@H]2CCCCCCC(=O)OC)CCC1 [butaprost] | displaced | activity at the putative EP2 receptor clone (putative EP2 receptor): inactive |
| CCCCC(C)(C)[C@H](O)/C=C/[C@H]1[C@H](O)CC(=O)[C@@H]1C/C=C\CCCC(=O)O [16,16-dimethyl PGE2] | active | – |
| CS(=O)(=O)NC(=O)CCC/C=C\C[C@H]1C(=O)C[C@@H](O)[C@@H]1/C=C/[C@@H](O)COc1ccccc1 [Sulprostone] | inactive | – |
| CCCCC[C@H](O)/C=C/[C@H]1[C@H](O)CC(=O)[C@@H]1CCCCCCCO [PGE1-1-OH] | only slightly active | – |
| CCCCC[C@H](O)/C=C/[C@H]1CCC(=O)[C@@H]1CCCCCCC(=O)O [11-deoxy PGE1] | exhibited competitive activity | – |
| O=C(O)CCCCCC[C@H]1C(=O)CC[C@@H]1/C=C/[C@@H](O)COc1ccccc1 [MB 28767] | only slightly active | – |

Further lines, with some results ahead:

| competition of [3H]-PGE2 binding (human HP4 receptor [1]) | Structure (SMILES) | other results |
| --- | --- | --- |
| displaced | CCCCCC(O)c1ccc(C2CCC(=O)C2CCCCCCC(=O)O)cc1 (stereo not shown) [AH13205] | bronchodilation [2]: induce bronchodilation; release of the inflammatory mediator leukotriene B4 (human neutrophils): inhibit; spontaneous contraction of human myometrium (human myometrium): inhibits |
| strongest competitors | CCCCC[C@H](O)/C=C/[C@H]1[C@H](O)CC(=O)[C@@H]1C/C=C\CCCC(=O)O [PGE2, Prostaglandin E2] | cAMP levels (human HP4 receptor [3]; IBMX, 3 minutes at 37° C.): significantly increased; potency order of stimulation of cAMP formation (human HP4 receptor [3]; order PGE2, AH13205, butaprost, PGE1-1-OH): potently stimulate cAMP formation |
| strongest competitors | CCCCC[C@H](O)/C=C/[C@H]1[C@H](O)CC(=O)[C@@H]1CCCCCCC(=O)O [PGE1] | – |
